US11466007B2, “Substituted lactams showing serotonin 5-HT receptor activity” (Sumitomo Pharma Co., Ltd., priority 2018, dated 2022)

experiment: Test 4: metabolic stability test in human hepatic microsome; assay type: in vitro ADME; details: 0.1 mg/mL microsome, 0.1 μmol/L compound, NADPH, 37° C., 30 minutes
Protocol: Test 4: Metabolic Stability Test in Human Hepatic Microsome
The stability of the present compound in human hepatic microsome metabolism was evaluated as mentioned below. Human hepatic microsome was obtained from Xenontech. Human hepatic microsome, NADPH, and each test compound were mixed in 25 mmol/L phosphate buffer solution (pH 7.4) to reach the following concentrations as shown below, and the mixture was incubated at 37° C. for 30 minutes. • Human hepatic microsome: 0.1 mg/mL • NAPDH: 3.2 mmol/L • Test compound: 0.1 μmol/L
The residual ratio of the test compound in each sample after 30 minutes was measured by LC-MS, and the metabolic stability in human hepatic microsome was calculated from the following formula. Metabolic stability in human hepatic microsome (mL/min/mg protein)=−LN(residual ratio)/30/0.1

| Compound | Metabolic stability in human hepatic microsome |
| --- | --- |
| CC1CN(CCN2CCC(c3noc4ccccc34)CC2)C(=O)c2ccn(C)c21 (stereo not drawn) [Example 82] | 0.072 mL/min/mg protein |
| Cc1nccc2c1C(=O)N(CCN1CCN(c3noc4ccccc34)CC1)CC2 [Example 85] | 0.046 mL/min/mg protein |
| Cc1ncc2c(n1)CCN(CCN1CCC(c3noc4ccccc34)CC1)C2=O [Example 88, 6-{2-[4-(1,2-Benzoisoxazol-3-yl)piperidin-1-yl]ethyl}-2-methyl-7,8-dihydropyrido[4,3-d]pyrimidin-5(6H)-one] | <0.01 mL/min/mg protein |
| Cc1ccc2onc(C3CCN(CCN4CCc5cccnc5C4=O)CC3)c2c1 [Example 89] | 0.050 mL/min/mg protein |
| Cc1ncc2c(n1)CCN(CCN1CCN(c3nsc4ccccc34)CC1)C2=O [Example 90] | 0.070 mL/min/mg protein |
| Cc1nn(C)c2c1C(=O)N(CCN1CCC(c3noc4ccccc34)CC1)CCC2 [Example 91] | <0.05 mL/min/mg protein |
| Cc1nn(C)c2c1C(=O)N(CCN1CCN(c3noc4ccccc34)CC1)CCC2 [Example 92] | 0.065 mL/min/mg protein |
| O=C1c2cn[nH]c2CCCN1CCN1CCC(c2noc3ccccc23)CC1 [Example 97, 5-{2-[4-(1,2-Benzoisoxazol-3-yl)piperidin-1-yl]ethyl}-5,6,7,8-tetrahydropyrazolo[4,3-c]azepin-4(1H)-one] | <0.01 mL/min/mg protein |
| O=C1c2[nH]ncc2CCN1CCN1CCC(c2noc3ccccc23)CC1 [Example 98, 6-{2-[4-(1,2-Benzoisoxazol-3-yl)piperidin-1-yl]ethyl}-1,4,5,6-tetrahydro-7H-pyrazolo[3,4-c]pyridin-7-one] | 0.013 mL/min/mg protein |
| Cc1n[nH]c2c1C(=O)N(CCN1CCC(c3noc4ccccc34)CC1)CC2 [Example 99, 5-{2-[4-(1,2-Benzoisoxazol-3-yl)piperidin-1-yl]ethyl}-3-methyl-1,5,6,7-tetrahydro-4H-pyrazolo[4,3-c]pyridin-4-one] | <0.01 mL/min/mg protein |
| Cn1ccc2c1CCCN(CCN1CCC(c3noc4ccccc34)CC1)C2=O [Example 103, 5-{2-[4-(1,2-Benzoisoxazol-3-yl)piperidin-1-yl]ethyl}-1-methyl-5,6,7,8-tetrahydropyrrolo[3,2-c]azepin-4(1H)-one] | <0.01 mL/min/mg protein |
| [2H]C([2H])([2H])Oc1cc2c(cn1)C(=O)N(CCN1CCN(c3nsc4ccccc34)CC1)CC2([2H])[2H] [Example 107, 2-{2-[4-(1,2-Benzoisothiazol-3-yl)piperazin-1-yl]ethyl}-6-[(^2H3)methyloxy](4,4-^2H2)-3,4-dihydro-2,7-naphthyridin-1(2H)-one] | 0.210 mL/min/mg protein |
| Cn1ccc2c1CCCN(CCN1CCN(c3noc4ccccc34)CC1)C2=O [Example 109, 5-{2-[4-(1,2-Benzoisoxazol-3-yl)piperazin-1-yl]ethyl}-1-methyl-5,6,7,8-tetrahydropyrrolo[3,2-c]azepin-4 (H)-one] | <0.01 mL/min/mg protein |
| Cc1cc2ccn(CCN3CCN(c4noc5ccccc45)CC3)c(=O)c2cn1 [Example 113, 2-{2-[4-(1,2-Benzoisoxazol-3-yl)piperazin-1-yl]ethyl}-6-methyl-2,7-naphthyridin-1(2H)-one] | 0.079 mL/min/mg protein |
| O=c1c2cccnc2ccn1CCN1CCN(c2noc3ccccc23)CC1 [Example 115] | <0.05 mL/min/mg protein |
| O=c1c2cnccc2ccn1CCN1CCN(c2noc3ccccc23)CC1 [Example 116] | 0.1 mL/min/mg protein |
| O=c1c2ncccc2ccn1CCN1CCN(c2noc3ccccc23)CC1 [Example 117] | <0.05 mL/min/mg protein |
| O=C1c2cccnc2CCN1CCN1CCC(c2noc3cc(F)ccc23)CC1 [Example 121] | <0.05 mL/min/mg protein |
| CC(CN1CCC(c2noc3cc(F)ccc23)CC1)N1CCc2cccnc2C1=O (stereo not drawn) [Example 122] | <0.05 mL/min/mg protein |
| O=C1c2ncccc2CCN1CCN1CCN(c2noc3cc(F)ccc23)CC1 [Example 123] | <0.05 mL/min/mg protein |
| O=C1c2ncccc2CCN1CCN1CCC(c2noc3cc(F)ccc23)CC1 [Example 125] | <0.05 mL/min/mg protein |
| O=C1c2occc2CCN1CCN1CCC(c2noc3ccccc23)CC1 [Example 127] | <0.05 mL/min/mg protein |
| O=C1c2cccnc2CCN1CCN1CCC(c2noc3ccccc23)CC1 [Example 128] | <0.05 mL/min/mg protein |
| O=c1c2cncnc2ccn1CCN1CCC(c2noc3ccccc23)CC1 [Example 129] | 0.084 mL/min/mg protein |

| Compound | Metabolic stability in human hepatic microsome |
| --- | --- |
| Cn1ncc2c1CCN(CCN1CCC(c3noc4ccccc34)CC1)C2=O [Example 130] | <0.05 mL/min/mg protein |
| Cn1ncc2c1CCN(CCN1CCN(c3noc4ccccc34)CC1)C2=O [Example 131] | <0.05 mL/min/mg protein |
| Cn1cnc2c1C(=O)N(CCN1CCC(c3noc4ccccc34)CC1)CC2 [Example 133] | <0.05 mL/min/mg protein |
| Cn1cnc2c1C(=O)N(CCN1CCC(c3noc4ccccc34)CC1)CCC2 [Example 134] | <0.05 mL/min/mg protein |
| Cc1cc2c(cn1)C(=O)N(CCN1CCC(c3noc4ccccc34)CC1)CC2 [Example 135] | <0.05 mL/min/mg protein |
| Cc1cncc2c1CCN(CCN1CCC(c3noc4ccccc34)CC1)C2=O [Example 138] | 0.083 mL/min/mg protein |
| Cc1nc(C)c2c(n1)CCN(CCN1CCC(c3noc4ccccc34)CC1)C2=O [Example 139] | <0.05 mL/min/mg protein |
| O=C1c2nc(Cl)ccc2CCN1CCN1CCN(c2noc3ccccc23)CC1 [Example 144] | <0.05 mL/min/mg protein |
| O=C1c2cccnc2CCN1CCN1CCN(c2noc3ccccc23)CC1 [Example 153, 6-{2-[4-(1,2-Benzoisoxazol-3-yl)piperazin-1-yl]ethyl}-7,8-dihydro-1,6-naphthyridin-5(6H)-one] | <0.05 mL/min/mg protein |
| Cc1nc2c(o1)C(=O)N(CCN1CCC(c3noc4ccccc34)CC1)CCC2 [Example 154] | <0.05 mL/min/mg protein |
| Cn1cc2c(n1)C(=O)N(CCN1CCC(c3noc4ccccc34)CC1)CC2 [Example 156] | <0.05 mL/min/mg protein |
| Cc1nc2c(o1)CCCN(CCN1CCC(c3noc4ccccc34)CC1)C2=O [Example 157] | <0.05 mL/min/mg protein |
| CC(C)n1ncc2c1CCN(CCN1CCC(c3noc4ccccc34)CC1)C2=O [Example 159] | <0.05 mL/min/mg protein |
| O=C1c2cnn(C3CC3)c2CCN1CCN1CCN(c2nsc3ccccc23)CC1 [Example 160] | 0.13 mL/min/mg protein |
| O=C1c2cnn(C3CC3)c2CCN1CCN1CCC(c2noc3ccccc23)CC1 [Example 161] | <0.05 mL/min/mg protein |
| CC(C)c1nc2c(o1)C(=O)N(CCN1CCC(c3noc4ccccc34)CC1)CC2 [Example 164] | 0.097 mL/min/mg protein |
| Cc1cc2c(n1C)CCCN(CCN1CCC(c3noc4ccccc34)CC1)C2=O [Example 166] | <0.05 mL/min/mg protein |
| Cn1ccc2c1CCN(CCN1CCN(c3noc4ccccc34)CC1)C2=O [Example 170] | <0.05 mL/min/mg protein |
| Cc1c2c(nn1C)CCN(CCN1CCN(c3noc4ccccc34)CC1)C2=O [Example 171] | <0.05 mL/min/mg protein |
| COc1ncc2c(n1)CCN(CCN1CCC(c3noc4ccccc34)CC1)C2=O [Example 176] | <0.05 mL/min/mg protein |
| COc1ncc2c(n1)CCN(CCN1CCN(c3nsc4ccccc34)CC1)C2=O [Example 177] | 0.095 mL/min/mg protein |
| Cc1ccc2c(n1)C(=O)N(CCN1CCN(c3noc4ccccc34)CC1)CC2 [Example 183] | <0.05 mL/min/mg protein |
| Cc1ccc2c(n1)C(=O)N(CCN1CCC(c3noc4ccccc34)CC1)CC2 [Example 184] | <0.05 mL/min/mg protein |
| O=C1c2nc(F)ccc2CCN1CCN1CCC(c2noc3ccccc23)CC1 [Example 188, 7-{2-[4-(1,2-Benzoisoxazol-3-yl)piperidin-1-yl]ethyl}-2-fluoro-6,7-dihydro-1,7-naphthyridin-8(5H)-one] | <0.05 mL/min/mg protein |
